Laboratory results from patent US9474765B2, “Composition for lipolysis, containing phosphatidylcholine, and preparation method therefor” (AMI Pharm Co., Ltd., priority 2013, dated 2016).

Columns and labels:
Sprague-Dawley rats [1] = test: Measuring the thickness of the soles of the hind feet after injection (edema, erythema); format: in vivo
Experimental: 0.1 ml of the injectable compositions of the above Table 1, Lipobean (purchased from Ami Pharm Co., Ltd.; positive control) or 2.5% sodium deoxycholate (hereinafter, “DC”; saline solution was used as a solvent) were injected into the soles of the hind feet of 6 week-old, male Sprague-Dawley rats (weight: 170-200 g), respectively. The thickness of the soles was measured by using calipers at 1, 2, 3, and 4 hours after injection, while test performers were not aware of the order or the purpose of tests (i.e. blind study).

Sprague-Dawley rats [2] = test: Histological test of the soles (hematoxylin eosin); format: in vivo; settings: 4 hours after administration, FIG. 3
Description: Four (4) hours after the above described administration, rats were sacrificed of which soles were removed and their skins were incised and fixated in 10% formalin solution. Then, they were dyed in hematoxylin eosin solution to observe their morphological changes.

[3] = test system: Myeloperoxidase (MPO) activity; test: MPO Activity Colorimetric Assay on hind feet tissue samples; format: in vivo, mice; settings: FIG. 4; comparison of groups
Experimental: Myeloperoxidase (MPO) activity was measured by using MPO Activity Colorimetric Assay Kit (BioVision, USA). The tissue samples of the hind feet of test animals in phosphatidylcholine (PC)-containing injection-administered test groups and sodium deoxycholate (DC)-administered group in various concentrations (PC 2.5%, PC 5%, DC 2.5%, PC 5%+DC 2.5%) were mixed in 4 times MPO assay buffer and centrifuged at 12,000 rpm for 10 minutes, followed by diluting each tissue sample with 25 μl of MPO assay buffer, respectively. The diluted samples were placed into standard, background sample of 96-well plate, while dividing reaction mix and background into their corresponding wells and cultivating at 25° C. for 120 minutes. Then, stop mix was added and left for 10 minutes. Subsequently, TNB reagent was added to equalize the total amount of each well to 150 μl, followed by sun blocking with aluminum foils and 10 minutes later measuring absorption value at 412 nm.

Prostaglandin E2 (PGE2) = test: PGE2 Assay on hind feet tissue samples; format: in vivo, mice; settings: FIG. 7
Experimental: Prostaglandin E2 (PGE2) in the hind feet tissue samples of test animals in phosphatidylcholine (PC)-containing injection-administered test groups and sodium deoxycholate (DC)-administered group in various concentrations (PC 2.5%, PC 5%, DC 2.5%, PC 5%+DC 2.5%) was measured with PGE2 Assay (R&D System Inc., Minneapolis, USA). During cultivation, PGE2s in the hind feet tissue samples bound competitively with horse radish peroxidase (HRP)-labeled PGE2 to their mouse monoclonal antibodies. Unbound materials were removed by using washing buffer, while substrate solution was added to each well and left at room temperature with sunlight blocked. Then, stop solution was added, followed by measuring absorption value at 450 nm.

Albino C57BL/6 mice = test: Determination of tissue necrosis through visual inspection after subcutaneous abdominal injection; format: in vivo; settings: 8 days after administration; for Tissue necrosis at the injected area (visual inspection): 0.2 ml s.c. into abdomen of obese mice, FIG. 8
Experimental: (§1) Albino C57BL/6 mice (4 weeks old) were fed with high fat diet (Research diet, 60% kcal lipid) to induce a high degree of obesity. Then, after 24 and 48 hours, 0.2 ml of saline solution (negative control group), injection compositions of Table 1, Lipobean, 2.5% DC were injected subcutaneously into the abdomen of the mice, respectively. Eight (8) days after the administration was completed, the mice were sacrificed.
Visual inspection was conducted on the subcutaneously injected areas of the sacrificed mice.

adipocytes = test: Observation of adipocytes in abdominal subcutaneous fats (H&E, optical microscope); format: in vivo, Albino C57BL/6 mice; settings: 0.2 ml s.c. into abdomen of obese mice, FIG. 9
Experimental: as §1
The abdomen of the sacrificed mice was incised, followed by rapid extraction of subcutaneous fats and their fixation in 4% formaldehyde solution. After fixation, washing & dehydrating were conducted and treated with paraffin solution to prepare paraffin blocks. Then, those paraffin blocks were thin-sliced in the thickness of 4 μm which were then dyed with hematoxylin & eosin for an optical microscopic observation.
The size of adipocytes in the saline control group and the PC injection-administered group were measured.

## sodium deoxycholate [DC 2.5%]
Sprague-Dawley rats [1]; 0 h, 0.1 ml injected into soles of hind feet, calipers
  Measurement of the thickness of the feet: 0.324
Sprague-Dawley rats [1]; 1 h after injection, 0.1 ml into soles of hind feet
  Measurement of the thickness of the feet: 0.720
Sprague-Dawley rats [1]; 2 h after injection, 0.1 ml into soles of hind feet
  Measurement of the thickness of the feet: 0.706
Sprague-Dawley rats [1]; 3 h after injection, 0.1 ml into soles of hind feet
  Measurement of the thickness of the feet: 0.682
Sprague-Dawley rats [1]; 4 h after injection, 0.1 ml into soles of hind feet
  Measurement of the thickness of the feet: 0.625
Sprague-Dawley rats [2]
  Edema and neutrophils in sole tissue (histology): both edema and neutrophils
[3]
  MPO activity in hind feet tissue: overall higher MPO activity
Prostaglandin E2 (PGE2)
  Level of PGE2 relative to phosphatidylcholine (PC)-administered test groups: ≥ 2 times
Albino C57BL/6 mice; listed as 2.5% DC
  Tissue necrosis at the injected area (visual inspection): severe necrosis with perforation in the skin
Albino C57BL/6 mice; listed as DC
  Tissue necrosis at the injected area (visual inspection): severe tissue necrosis with perforation and fibrosis
Albino C57BL/6 mice; 0.2 ml s.c. into abdomen
  Fibrosis (autopsy): fibrosis was spread to the surrounding tissues
adipocytes
  Inflammation in abdominal subcutaneous fat (histology): greater degree of inflammation than other groups
  Lipolysis in abdominal subcutaneous fat (histology): Almost no lipolysis effect
